Laboratory results reported in PubChem BioAssay (NCI).
Where “and” joins values, the source holds several entries; their conditions need not be identical. Identical values can stand only once.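 1) Cells in 96-well plates. 2) Compound, 48 h, 5 concentrations. 3) Linear interpolation between surrounding doses. 4) Unreached endpoint = highest concentration. GI50: concentration for 50% inhibition of growth. Definition used: TGI = concentration required for complete inhibition of growth.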

Experiments:
Assay in all cases: DTP human tumour cell line panel, 48 h
[1] = test system: SK-MEL-28 melanoma
[2] = test system: SN12C renal
[3] = test system: OVCAR-5 ovarian
[4] = test system: OVCAR-4 ovarian
[5] = test system: HCC-2998 colon
[6] = test system: A549 NSCLC
[7] = test system: SR leukemia
[8] = test system: HOP-92 NSCLC
[9] = test system: HCT-116 colon
[10] = test system: U251 CNS
[11] = test system: RXF 393 renal
[12] = test system: T-47D breast
[13] = test system: PC-3 prostate
[14] = test system: MCF7 breast
[15] = test system: BT-549 breast

| Compound | TGI [1] [µM] | TGI [2] | TGI [3] [µM] | TGI [4] [µM] | TGI [5] [µM] | TGI [6] [µM] | TGI [7] [µM] | TGI [8] | TGI [9] | TGI [10] [µM] | TGI [11] [µM] | TGI [12] [µM] | TGI [13] [µM] | TGI [14] [µM] | GI50 [2] | GI50 [7] [µM] | TGI [15] [µM] | GI50 [8] | GI50 [9] | GI50 [10] |
| --- | --- | --- | --- | --- | --- | --- | --- | --- | --- | --- | --- | --- | --- | --- | --- | --- | --- | --- | --- | --- |
| CC(C)=CC(=O)c1c(C(=O)O)nc2ccccc2[n+]1[O-] | > 100 | > 100 µM | > 100 | > 100 | > 100 | > 100 | > 100 | > 100 µM | > 100 µM | > 100 | > 100 | – | – | – | – | – | – | – | – | – |
| COc1ccc2c(c1)CC[C@@H]1C2CC[C@]2(C)C(=C=CP(=O)(O)O)CCC12 (stereo partly specified) | > 100 | > 100 µM | > 100 | > 100 | > 100 | > 100 | > 100 | > 100 µM | > 100 µM | > 100 | > 100 | > 100 | > 100 | > 100 | – | – | – | – | – | – |
| CC(C)=CCCC1(C)C2COC(=O)C21 (stereo unspecified) | > 100 | > 100 µM and 39.9 µM | > 100 | > 100 | > 100 | – | > 100 | > 100 µM and 97.3 µM | > 100 µM and 35.4 µM | > 100 | > 100 | – | > 100 | > 100 | 52.8 µM and 19.3 µM | > 100 | > 100 | > 100 µM and 34.2 µM | > 100 µM and 19.8 µM | > 100 µM and 43.5 µM |
| C=CCOC(=O)N1c2ccc(O)cc2[C@@]23O[C@@]24[C@@H]1C#C/C=C\C#C[C@]3(O)C(=O)C[C@@H]4C | > 100 | > 100 µM | > 100 | 50.1 | > 100 | > 100 | 42.3 | > 100 µM | > 100 µM | > 100 | > 100 | > 100 | > 100 | > 100 | – | – | – | – | – | – |
| NC(N)=NCCCC(NC(=O)c1c2ccccc2nc2ccccc12)C(=O)O (stereo unspecified) | > 100 | > 100 µM | > 100 | > 100 | > 100 | > 100 | > 100 | > 100 µM | > 100 µM | > 100 | – | – | > 100 | > 100 | – | – | > 100 | – | – | – |
| CCOC(=O)c1c(-c2ccccc2)c(C)cn1C | – | > 10 µM | > 10 | > 10 | – | > 10 | > 10 | > 10 µM | > 10 µM | > 10 | > 10 | – | – | – | – | – | > 10 | – | – | – |
| Cc1ccc(NC(=O)C(=O)Cc2cccc[n+]2[O-])cc1C | > 100 | > 100 µM | > 100 | > 100 | > 100 | > 100 | > 100 | – | > 100 µM | > 100 | > 100 | – | – | – | – | – | – | – | – | – |
| Cc1nc(Cc2n[nH]c(C)n2)n[nH]1 | – | > 100 µM | > 100 | > 100 | > 100 | > 100 | > 100 | > 100 µM | > 100 µM | > 100 | > 100 | – | > 100 | > 100 | – | – | > 100 | – | – | – |
| c1cc2c(cc1[C@@H]1OC[C@@H]3[C@H]1CO[C@H]3c1ccc3c(c1)OCO3)OCO2 | > 100 | > 100 µM | > 100 | > 100 | > 100 | > 100 | – | > 100 µM | > 100 µM | > 100 | 89.3 | > 100 | > 100 | > 100 | – | – | – | – | – | – |
| CC(C)(CN1CCCCC1)C(=O)CC(SCCS(=O)(=O)O)c1ccc(Cl)cc1 (stereo unspecified) | – | 15.8 µM | 11.4 | – | 26 | 23.5 | 4.82 | 7.13 µM | 13.6 µM | 22.3 | 9.92 | – | 18.1 | 11.8 | – | – | 22.7 | – | – | – |
| S=c1[nH]nc(CCCCCCCCc2n[nH]c(=S)o2)o1 | > 100 | > 100 µM | > 100 | > 100 | – | > 100 | – | – | > 100 µM | > 100 | > 100 | – | > 100 | > 100 | – | – | > 100 | – | – | – |
| CCc1cc2c(c3c1CCCC3=O)CC1(C2)Cc2cc(CC)c3c(c2C1)C(=O)CCC3 | > 100 | > 100 µM | > 100 | > 100 | > 100 | > 100 | 75.1 | > 100 µM | > 100 µM | > 100 | > 100 | > 100 | > 100 | > 100 | – | – | – | – | – | – |
| O=CC1=CCC2c3[nH]c4ccccc4c3CCN2C1 (stereo unspecified) | 248 | > 396 µM | > 396 | – | 253 | > 396 | > 396 | > 396 µM | 126 µM | 195 | > 396 | – | – | – | – | – | – | – | – | – |
| CCOC(=O)C1C(c2ccc(OC)cc2)c2c([nH]n(-c3ccccc3)c2=O)CC1(C)O (stereo unspecified) | > 100 | > 100 µM | > 100 | > 100 | > 100 | > 100 | > 100 | > 100 µM | > 100 µM | > 100 | – | > 100 | > 100 | > 100 | – | – | – | – | – | – |
| O=C1c2ccccc2C(=O)c2sc(Nc3cc(Cl)ccc3Cl)nc21 | 27.3 | 3.17 µM | 45.6 | 18.2 | 20.7 | 42.2 | > 100 | 36.2 µM | 13.7 µM | 33.5 | 39.3 | 34.3 | 18.5 | 3.7 | – | – | – | – | – | – |
| O=C(c1ccccc1)c1cc(Cl)ccc1NCn1nnc2ccccc21 | – | > 100 µM | – | > 100 | > 100 | > 100 | > 100 | > 100 µM | – | > 100 | > 100 | – | – | – | – | – | – | – | – | – |
| CN(/N=C\c1ccc2ccccc2c1)C1=NCCCN1 | 29.8 | – | > 100 | > 100 | 27.2 | 24.7 | > 100 | 14.5 µM | 28.9 µM | 96.6 | 35.4 | > 100 | – | 26.4 | – | – | – | – | – | – |
| COC1OC(C(=O)O)C2OC(C)(C)OC12 (stereo unspecified) | > 100 | > 100 µM | > 100 | > 100 | > 100 | > 100 | > 100 | > 100 µM | > 100 µM | > 100 | > 100 | – | > 100 | > 100 | – | – | > 100 | – | – | – |
| CSc1nc(C)c2c(n1)N(c1ccc(Cl)cc1)CC2 | > 100 | > 100 µM | > 100 | > 100 | > 100 | > 100 | > 100 | > 100 µM | > 100 µM | > 100 | > 100 | > 100 | > 100 | > 100 | – | – | – | – | – | – |
| COC(=O)CC1CC2(C(=O)OC)c3[nH]c4ccccc4c3CCN2C1=O (stereo unspecified) | > 100 | > 100 µM | > 100 | > 100 | > 100 | > 100 | > 100 | > 100 µM | > 100 µM | > 100 | > 100 | – | – | – | – | – | – | – | – | – |
| Cc1cc2c(cc1Cl)Sc1n[nH]c(=O)n1S2(=O)=O | > 100 | > 100 µM | > 100 | > 100 | > 100 | > 100 | – | > 100 µM | > 100 µM | > 100 | – | – | > 100 | > 100 | – | – | > 100 | – | – | – |
| O=c1[nH]c2ccc([N+](=O)[O-])cc2nc1/C(=N/Nc1ccccc1)C(O)c1ccco1 (stereo unspecified) | > 100 | > 100 µM | > 100 | > 100 | > 100 | > 100 | > 100 | > 100 µM | > 100 µM | > 100 | > 100 | – | – | – | – | – | – | – | – | – |
| N#Cc1c(N)nc(Sc2ccccc2N)c(C#N)c1-c1ccccc1 | > 100 | – | > 100 | > 100 | 38.3 | > 100 | > 100 | 64.3 µM | > 100 µM | 60.2 | – | – | 33.3 | 49.8 | – | – | 95.9 | – | – | – |
| C=CCN1C(=O)CC(=O)N(NC2=NNC3(C(=O)N2)c2ccccc2-c2ccccc23)C1=S | > 100 | > 100 µM | > 100 | > 100 | > 100 | > 100 | 61.1 | 61.8 µM | > 100 µM | > 100 | > 100 | – | > 100 | > 100 | – | – | > 100 | – | – | – |
| CC1=CCN(c2ccccn2)OC1c1ccccc1 (stereo unspecified) | > 100 | > 100 µM | > 100 | > 100 | > 100 | > 100 | > 100 | – | > 100 µM | > 100 | > 100 | – | – | – | – | – | – | – | – | – |
| C(=C\c1c2oc(-c3ccccc3)cc(-c3ccccc3)c-2c2ccccc12)/C=C1\c2ccccc2-c2c(-c3ccccc3)cc(-c3ccccc3)[o+]c21 | > 100 | > 100 µM | > 100 | > 100 | > 100 | > 100 | > 100 | > 100 µM | > 100 µM | > 100 | > 100 | – | – | – | – | – | – | – | – | – |
| c1ccc(Nc2nnc(CCCCCCCCc3nnc(Nc4ccccc4)o3)o2)cc1 | > 100 | > 100 µM | > 100 | > 100 | > 100 | > 100 | – | – | > 100 µM | > 100 | > 100 | – | > 100 | > 100 | – | – | > 100 | – | – | – |
| O=C(/C(=C/c1ccc(O)cc1)c1ccccc1)c1ccccc1 | 31.9 | 32.5 µM | 32 | 55.2 | 32 | 41.7 | 61.2 | 18.3 µM | 31.5 µM | 29.7 | – | – | – | – | – | – | – | – | – | – |
